# Where no end group is shown, it is not given here.
# Experiments:
# [1] = α-helicity of LP17 and control peptide in saline and SSM; type: physicochemical; settings: peptide 20 μM, SSM 5 mM
# Method: The α-helicity of LP17 (20 μM) in saline and in SSM (5 mM) was tested. A control peptide ([…] (SEQ ID NO:2)) was also tested in saline and in SSM at the same concentrations.
# [2] = test system: TREM-1 promoter-driven luciferase gene; assay: TREM1-luciferase reporter assay in RAW 264.7 macrophages stimulated with P. aeruginosa PA103; type: cell-based, mouse; settings: RAW 264.7 cells pre-treated 18 hr, then PA103 24 hr; compared to saline-treated PA103-stimulated cells
# Source text: Murine macrophages (RAW 264.7 cells) were transfected with a pro-inflammatory mediator ‘triggering receptor expressed on myeloid cells’ (TREM-1) promoter-driven luciferase gene. TREM-1 is an immunoglobulin superfamily (IgSF) molecule that amplifies inflammation and is a crucial mediator of septic shock (Bouchon et al., Nature 410: 1103-1107, 2001). The macrophages were pre-treated for 18 hr with the following treatments: (i) saline, (ii) SSM, (iii) sub-micellar concentration of lipid (lipid), (iv) GLP-SSM (GM), or (v) VIP-SSM (VM), in the presence or absence of Exendin(9-39) or (VIP(6-28). To allow for the presence of excess antagonist to compete with its respective peptide agonist for receptor binding, the concentration of each receptor antagonist used (10 μM) was 10 times greater than its peptide agonist (1 μM). Inflammation of cells was induced by the addition of the Gram-negative bacteria Pseudomonas aeruginosa (P. aeruginosa strain PA103) for an additional 24 hr, and luciferase activities were measured (see FIG. 1).
# The preparation of samples was carried out as follows: The SSM stock solution (1.59 mM) was prepared by weighing approximately 2.23 mg of DSPE-PEG2000 into a round bottom flask (RBF). Saline (˜0.5 ml) was added to achieve a concentration of 1.59 mM. […]
# TREM1 expression levels were determined as set out below. […]
# [3] = test system: NF-κB; assay: NF-κB-driven luciferase reporter assay in bone marrow-derived macrophages (BMDM) with LPS; type: cell-based, mice; settings: 24 h
# Source text: Bone marrow-derived macrophages (BMDM) from a primary macrophage cell line, extracted from mice transfected with a nuclear factor-kappa B (NF-κB)-driven luciferase reporter plasmid, were used in these experiments. In this cell line, the expression of NF-κB (a proinflammatory mediator) induces the expression of a luciferase gene in a concentration-dependent manner. Therefore, the expression level of NF-κB in BMDM can be quantified indirectly by the magnitude of luminescence produced [relative luminescence units (RLU)] via a luciferase assay. BMDM were subjected to treatment with either saline, saline+LPS, SSM, SSM+LPS, GLP, GLP+LPS, GLP-SSM (GM), GM+LPS, VIP, VIP+LPS, VIP-SSM (VM), and VM+LPS. The resulting inflammatory responses induced by the different agents was then quantified via a luciferase assay to determine the expression level of NF-κB.
# Test reagents for use in the experiments were prepared using the following protocols as set out in detail below. SSM stock solution (1.56 mM): Weigh approximately 2.2 mg of DSPE-PEG2000 into a round bottom flask (RBF). Add the required volume of saline (˜0.5 ml) to achieve a concentration of 1.56 mM. Vortex the mixture for 2 minutes at maximum speed. Flush the solution with argon and equilibrate in the dark at 25° C. for at least 1 hour. […] Dissolve in the required volume of saline (˜30 μl) to form stock solution (173.3 μM). Test samples and controls were prepared as set out in Table 2, and samples and control were incubated at 25° C. for 2 h in the dark. VIP stock solution (176.67 μM≡587.57 μg/ml): Weigh approximately 12 μg of VIP peptide. Saline (˜20 μl) was added to form the stock solution (176.67 μM). LPS stock solution (LPS is weighed from lyophilized powder and dissolved in PBS; each well contains 1 μg/ml).
# Preparation of cells for test: Extracted bone marrow cells were grown for 7 days in liquid culture medium (LCM) containing full medium. Old medium was removed and fresh medium (10-20 ml) was added. Cells were dislodged by scraping using a cell scraper, and the cells were counted. The concentration of cells was adjusted with medium to the test concentration of 10^5 cells/ml. Cells (10^5) (˜1 ml) were plated into each well of a 12-well plate. This procedure was repeated until 16 wells were plated with cells. Cells were incubated for 24 h at 37° C., 5% CO2. This allowed cells to adhere to the culture plate. After 24 h, medium was removed and replaced with serum-starved medium (with 2% FBS, phenol red containing DMEM and Pen/Strep (P/S)). Cells were incubated at 37° C., 5% CO2.
# Determination of NF-κB expression level: Before addition of sample/control, the media was removed from each well; washed with PBS and 0.5 ml of serum free media (DMEM with no phenol red, FCS or antibiotics) was added into each well. Cells were treated as set out in Table 3 below. Cells were then incubated for 24 h at 37° C. The culture media was collected from each well. Remaining cells were washed twice with PBS; 100 μl of cell lysis buffer (luciferase kit) was added; cells were dislodged with a cell scraper and collected in centrifuge tubes. All samples were stored at −80° C. if not used immediately. The expression level of NF-kappa B (relative luminescence units (RLU)) in the cell lysate from each well was measured using a luciferase assay (Cat#1500, Promega). The protein content of each sample was measured using a Bradford protein assay to normalize results from the luciferase assay. The results are set out in Table 3 below and in FIG. 2.
substance,measurement,setting,value
"TDSRCVIGLYHPPLQVY (SEQ ID NO:2) (listed as Mus musculus) [control peptide, control peptide for LP17]",percent α-helicity in SSM compared to saline,[1],No significant difference
Exendin (9-39),luciferase activity (expression level of TREM 1),[2],absence of anti-inflammatory effect
"VIP(6-28): VIP receptor antagonist (FTDNYTRLRKQMAVKKYLNSILN; ends and bridges not checked; UniProt P01282 130-152, looked up, fragment)",luciferase activity (expression level of TREM 1),[2],absence of anti-inflammatory effect
"vasoactive intestinal peptide (HSDAVFTDNYTRLRKQMAVKKYLNSILN; ends and bridges not checked; UniProt P01282 125-152, looked up) [VIP, peptide hormone containing 28 amino acid residues, free peptide in saline]","Relative Luminescence Units (RLU) Normalized to Protein Concentration, Ave.",[3]; + LPS (1 μg/ml),311.39 RLU
same,"Relative Luminescence Units (RLU) Normalized to Protein Concentration, Trial 1",[3]; + LPS (1 μg/ml),329.26 RLU
same,"Relative Luminescence Units (RLU) Normalized to Protein Concentration, Trial 2",[3]; + LPS (1 μg/ml),342.42 RLU
same,"Relative Luminescence Units (RLU) Normalized to Protein Concentration, Trial 3",[3]; + LPS (1 μg/ml),306.81 RLU
same,"Relative Luminescence Units (RLU) Normalized to Protein Concentration, Trial 4",[3]; + LPS (1 μg/ml),267.10 RLU
same,"Relative Luminescence Units (RLU) Normalized to Protein Concentration, Ave.",[3]; control without LPS,73.70 RLU
same,"Relative Luminescence Units (RLU) Normalized to Protein Concentration, Trial 1",[3]; control without LPS,57.78 RLU
same,"Relative Luminescence Units (RLU) Normalized to Protein Concentration, Trial 2",[3]; control without LPS,90.09 RLU
same,"Relative Luminescence Units (RLU) Normalized to Protein Concentration, Trial 3",[3]; control without LPS,60.50 RLU
same,"Relative Luminescence Units (RLU) Normalized to Protein Concentration, Trial 4",[3]; control without LPS,86.45 RLU
